Data: US7119207B2, “Benzoamide piperidine containing compounds and related compounds” (Pfizer INC, priority 2000, dated 2006)
Structures can show the parent of a compound that is named as a salt.

Row | melting point | Compound
1 | 233 to 235 °C | COc1cc2c(cc1CNC1CCCNC1c1ccccc1)NC(=O)CC2 (stereo not drawn) (as salt: HCl) [Example 1, 6-Methoxy-7-[(2-phenyl-piperidin-3-ylamino)-methyl]-3,4-dihydro-1H-quinolin-2-one]
2 | 253 to 255 °C | CCN1C(=O)CCc2cc(OC)c(CNC3CCCNC3c3ccccc3)cc21 (stereo not drawn) (as salt: hydrochloride) [Example 2, 1-Ethyl-6-methoxy-7-[(2-phenyl-piperidin-3-ylamino)-methyl]-3,4-dihydro-1H-quinolin-2-one]
3 | 237 to 241 °C | COc1cc2c(cc1CNC1CCCNC1c1ccccc1)N(S(C)(=O)=O)C(=O)CC2 (stereo not drawn) (as salt: hydrochloride) [Example 3, 1-Methanesulfonyl-6-methoxy-7-[(2-phenyl-piperidin-3-ylamino)-methyl]-3,4-dihydro-1H-quinolin-2-one]
4 | > 280 °C | COc1cc2c(cc1CNC1CCCNC1c1ccccc1)N(C)C(=O)CC2(C)C (stereo not drawn) (as salt: hydrochloride) [Example 4, 6-Methoxy-1,4,4-trimethyl-7-[(2-phenyl-piperidin-3-ylamino)-methyl]-3,4-dihydro-1H-quinolin-2-one]
5 | > 270 °C | COc1cc2c(c(F)c1CNC1CCCNC1c1ccccc1)N(C)C(=O)CC2(C)C (stereo not drawn) (as salt: hydrochloride) [Example 5, 8-Fluoro-6-methoxy-1,4,4-trimethyl-7-[(2-phenyl-piperidin-3-ylamino)-methyl]-3,4-dihydro-1H-quinolin-2-one]
6 | 222 to 224 °C (dec.) | COc1cc2c(cc1CN[C@H]1CCCN(C(=O)C(F)(F)F)[C@H]1c1ccccc1)N(C)C(=O)CC2 (as salt: hydrochloride) [Example 10, 6-Methoxy-1-methyl-7-[(2S,3S)-(2-phenyl-1-trifluoroacetyl-piperidin-3-ylamino)-methyl]-3,4-dihydro-1H-quinolin-2-one]
7 | > 250 °C (dec.) | COc1cc2c(cc1CN[C@H]1CCCN(C)[C@H]1c1ccccc1)C(C)(C)C(=O)N2C (as salt: hydrochloride) [Example 14, 5-[{(2S,3S)-1-Methyl-2-phenyl-piperidin-3-ylamino}-methyl]-6-methoxy-1,3,3-trimethyl-1,3-dihydro-indol-2-one]
8 | > 250 °C (dec.) | COc1cc2c(cc1CN[C@H]1CCCN(Cc3n[nH]c(=O)[nH]3)[C@H]1c1ccccc1)C(C)(C)C(=O)N2C [Example 18, 6-Methoxy-1,3,3-trimethyl-5-{[(2S,3S)-1-(5-oxo-4,5-dihydro-1H-[1,2,4]triazol-3-ylmethyl)-2-phenyl-piperidin-3-ylamino]-methyl}-1,3-dihydro-indol-2-one]
9 | 231 to 234 °C (dec.) | CCC1CCC(NCc2cc3c(cc2OC)C2CC2C(=O)N3C)C(c2ccccc2)N1 (stereo not drawn) [Example 85, 5-[(6-Ethyl-2-phenyl-piperidin-3-ylamino)-methyl]-6-methoxy-3-methyl-1,1a,3,7b-tetrahydro-3-aza-cyclopropa[a]naphthalen-2-one]
